Laboratory results published in article PMC8957246, “Synthesis and diverse biological activity profile of triethylammonium isatin-3-hydrazones” (ADMET & DMPK, 2022).
Read-outs that look alike come from different tables or passages of the source.

What was measured:
Format in all cases: cell-based
[1] = test system: Staphylococcus aureus ATCC 6538P FDA 209P; assay: Antimicrobial activity, serial dilution (MIC/MBC), Sa
Procedure: (§1) The antimicrobial activity of the test compounds was determined by the serial dilution technique in Muller Hinton Broth 2 and in Sabouradu broth for fungi. The cultures used for testing included Gram-positive bacteria: Staphylococcus aureus ATCC 6538P FDA 209P, Bacillus cereus ATCC 10702 NCTC 8035, Enterococcus faecalis ATCC 29212; Gram-negative bacteria: Escherichia coli ATCC 25922, Pseudomonas aeruginosa ATCC 9027, and fungi: Trichophyton mentagrophytes var. gypseum 1773, and Candida albicans ATCC 10231; methicillin-resistant strains of S. aureus (MRSA) was obtained from hospital patients with chronic tonsillitis in the Republican Clinical Hospital (Kazan, Russia). The bacterial load was 3.0 × 10^5 cfu/ml. The fungi load was 2.0 × 10^3 cfu/ml. The results were recorded every 24 h for 5-7 days. Cultures were incubated at 37 °C. The experiment was repeated three times. […] The minimum inhibitory concentration (MIC) was defined as the minimum concentration of a compound that inhibits the growth of the corresponding test microorganism. The growth of bacteria, as well as the absence of the growth due to the bacteriostatic action of compounds, were recorded.
(§2) Synthesized compounds were further evaluated for antimicrobial activity against test microorganisms: Staphylococcus aureus ATCC 209p (Sa), Bacillus cereus ATCC 8035 (Bc), Escherichia coli CDC F-50 (Ec), Enterococcus faecalis (Ef), Pseudomonas aeruginosa ATCC 9027, Aspergillus niger BKMF-1119, Trichophyton mentagrophytes var. gypseum 1773, and Candida albicans 855-653 including methicillin-resistant strains of S. aureus (MRSA 1 and MRSA 2). The minimum inhibitory (MIC) and minimum bactericidal (MBC) concentrations of ammonium salts were determined against these pathogens (Table 1). Due to the lack of activity of compounds 3a-g against Gram-negative bacterial strains and some fungi, the corresponding data are not shown.

[2] = test system: Candida albicans ATCC 10231; assay: Antimicrobial activity, serial dilution (MIC/MBC), Ca; details: ATCC10231
Procedure: as §1, §2

[3] = test system: platelets (collagen-induced aggregation); assay: Platelet aggregation (Born method), collagen-induced; details: Homo sapiens, collagen 5 mg/mL, final concentration 2×10^–3 mol/L, median (25-75 percentiles), read-out: Platelets aggregation, % of control, Collagen
Procedure: The in vitro experiments were performed using the blood of healthy male donors aged 18-24 years (total 54 donors). The study was approved by the Ethics Committee of Federal State Budgetary Educational Institution of Higher Education at the Bashkir State Medical University of the Ministry of Health of Russian Federation (No.2 dated 17.10.2012). Informed consent was obtained from all participants before blood sampling. The blood was collected from the cubital vein using the system of vacuum blood collection BD Vacutainer® (Becton, Dickinson and Company, USA). A 3.8 % sodium citrate solution in a 9:1 ratio was used as a venous blood stabiliser. The study of the effect on platelet aggregation was performed using the Born method using the aggregometer «AT-02» (SPC Medtech, Russia). The assessment of antiplatelet activity of the studied compounds and reference preparations was started with the final concentration of 2×10^–3 mol/L. Adenosine diphosphate (ADP; 20 μg/mL) and collagen (5 mg/mL) manufactured by Tehnologia-Standart Company, Russia, were used as inducers of aggregation. The study on the anticoagulant activity was performed by standard recognised clotting tests using the optical two-channel automatic analyser of blood coagulation Solar CGL 2110 (CJSC SOLAR, Belarus). The following parameters were studied: activated partial thromboplastin time (APTT), prothrombin time (PT) and fibrinogen concentrations according to the Clauss method. The determination of anticoagulant activity of the studied compounds and reference preparation was performed in a concentration of 5×10^–4 g/mL using the reagents manufactured by Tehnologia-Standart Company (Barnaul, Russia). The results of the study were processed using the statistical package Statistica 10.0 (StatSoft Inc, USA). The Shapiro–Wilk’s test was used to check the normality of actual data distribution. The form of distribution of the data obtained differed from the normal one; therefore, non-parametric methods were used for further analysis. The data were presented as medians and 25 and 75 percentiles. Analysis of variance was conducted using Kruskal–Wallis test. A p value of 0.05 was considered statistically significant.

[4] = Staphylococcus aureus, read-out: MBC (converted)

Compound | MIC ([1]; Staphylococcus aureus) | MBC [1, 4] | MBC [2] | MIC [2] | inhibition at 2000 µM [3] | MBC [1]
CC[N+](CC)(CC)CC(=O)N/N=C1\C(=O)N(Cc2cc(C(C)(C)C)c(O)c(C(C)(C)C)c2)c2ccccc21 [Compound 3a, 2-(2-(1-(3,5-Di-tert-butyl-4-hydroxybenzyl)-2-oxoindolin-3-ylidene)hydrazinyl)-N,N,N-triethyl-2-oxoethanammonium bromide] | 6.5 ± 0.5 µM | 13 µM | > 500 µM | > 500 µM | 9.4% | 
CCc1cccc2c1N(Cc1cc(C(C)(C)C)c(O)c(C(C)(C)C)c1)C(=O)/C2=N\NC(=O)C[N+](CC)(CC)CC [Compound 3c, 2-(2-(1-(3,5-Di-tert-butyl-4-hydroxybenzyl)-7-ethyl-2-oxoindolin-3-ylidene)hydrazinyl)-N,N,N-triethyl-2-oxoethanammonium bromide] | 3.1 ± 0.2 µM | 6.2 µM | > 500 µM | > 500 µM | 12.5% | 6.2 ± 0.5 µM
CC[N+](CC)(CC)CC(=O)N/N=C1\C(=O)N(Cc2cc(C(C)(C)C)c(O)c(C(C)(C)C)c2)c2c1ccc(C)c2C [Compound 3d, 2-(2-(1-(3,5-Di-tert-butyl-4-hydroxybenzyl)-6,7-dimethyl-2-oxoindolin-3-ylidene)hydrazinyl)-N,N,N-triethyl-2-oxoethanammonium bromide] | 3.1 ± 0.2 µM | 12.4 µM | > 500 µM | 198 ± 15.5 µM | 8.5% | 
CC[N+](CC)(CC)CC(=O)N/N=C1\C(=O)N(Cc2cc(C(C)(C)C)c(O)c(C(C)(C)C)c2)c2cccc(Br)c21 [Compound 3e, 2-(2-(1-(3,5-Di-tert-butyl-4-hydroxybenzyl)-4-bromo-2-oxoindolin-3-ylidene)hydrazinyl)-N,N,N-triethyl-2-oxoethanammonium bromide] | 8.9 ± 0.7 µM | 17.7 µM | > 500 µM | > 500 µM | 2.4% | 
CC[N+](CC)(CC)CC(=O)N/N=C1\C(=O)N(Cc2cc(C(C)(C)C)c(O)c(C(C)(C)C)c2)c2ccc([N+](=O)[O-])cc21 [Compound 3f, 2-(2-(1-(3,5-Di-tert-butyl-4-hydroxybenzyl)-5-nitro-2-oxoindolin-3-ylidene)hydrazinyl)-N,N,N-triethyl-2-oxoethanammonium bromide] | 48.3 ± 3.9 µM | 96.7 µM | > 500 µM | > 500 µM | 4.3% | 
CC[N+](CC)(CC)CC(=O)N/N=C1\C(=O)N(Cc2cc(C(C)(C)C)c(O)c(C(C)(C)C)c2)c2c(Br)cc(Cl)cc21 [Compound 3g, 2-(2-(1-(3,5-Di-tert-butyl-4-hydroxybenzyl)-5-chloro-7-bromo-2-oxoindolin-3-ylidene)hydrazinyl)-N,N,N-triethyl-2-oxoethanammonium bromide] | 11 ± 0.9 µM | 21.9 µM | > 500 µM | > 500 µM | 8.9% | 
